Reference: patent US20190331687A1, “CANCER TREATMENT” (PFIZER INC., priority 2014, published 2019)

Test system: metastatic renal cell carcinoma (mRCC)
Experiment: Study A4061032 (AXIS phase 3 trial): PFS and OS of axitinib-treated mRCC patients by tumor CD68 IHC stratum (median cut off)
Format: in vivo, human
Details: for median OS / median progression free survival (PFS): regardless of prior treatment
Excerpt: Study A4061032 (ClinicalTrials.gov Identifier: NCT00678392) was a phase 3 registrational trial entitled “Axitinib (AG-013736) as second line therapy for metastatic renal cell cancer: Axis trial”. […] A total of 650 patients were planned to be enrolled, and 723 subjects were eventually enrolled in the study.
As described in further detail in the Examples, formalin-fixed paraffin embedded (FFPE) tumor samples were collected from patients who participated in A4061032, and who provided specific consent for collection of tumor sample. Tumor myeloid (cluster of differentiation 68 “CD68”) or lymphocyte (cluster of differentiation 3 “CD3”) infiltration was assessed by immunohistochemistry (IHC) in tumor samples from 52 axitinib-treated patients. The aim was to investigate the potential association of these biomarkers with efficacy, consistent with the hypothesis that myeloid infiltration confers resistance to anti-angiogenic agents targeting the VEGF-VEGFR2 pathway (see Shojaei et al. (2007) Nat. Biotechnol. 25(8):911-920; and Lin et al. (2010) Eur. J. Cancer Suppl. 8(7): 191).
The evaluation of CD3 and CD68 was performed by image analysis from a whole slide scan. The region of interest was circled, and an image analysis algorithm was run. The percentage of positive cells (number of positive cells/total number of cells) and the density of positive cells (e.g. number of positive cells/mm^2) was measured. Some patients donated FFPE blocks, and some donated slides cut from blocks. Samples from all patients were analyzed, whether they were provided as slides or blocks.
This study was a 2-arm, randomized, open-label, multi-center phase 3 study of axitinib versus sorafenib in patients with metastatic renal cell carcinoma (mRCC), after failure following one prior systematic first-line regimen containing one or more of the following agents: sunitinib, bevacizumab+IFN α, temsirolimus, or cytokine(s). Overall, 723 patients with mRCC were randomized and enrolled in this study, among which 52 axitinib-treated patients were evaluable for immunohistochemistry (IHC) analysis; further, 33 of the 52 patients were previously treated with Sutent®.
All 52 patients were evaluable for both CD3 and CD68. Of the 52 CD3 and CD68 evaluable patients, 26 donated formalin-fixed paraffin embedded (FFPE) tumor blocks, and 26 donated slides for analysis. Mosaic Laboratories provided FFPE material representing human normal and human cancer. Specimens were procured under an IRB-reviewed protocol (MOS001) that allows for use of remnant, de-identified, or anonymized human samples for in vitro analysis under the guidelines defining ‘Exemption from Human Subject Research’ as defined by the Office of Human Research Protection. The CD68 mouse monoclonal KP1 antibody (Catalog# M0814, Lot#46406, Expiration date: September 2011) was purchased from Dako (Carpinteria, Calif., United States) and stored at 2-8° C. in accordance with accompanying documentation. The mouse IgG isotype control antibody (Lot#37211, Expiration date: July 2010) was purchased from Dako and stored at 2-8° C. in accordance with accompanying documentation. IHC was performed in accordance with Mosaic Laboratories' SOPs. The CD68 IHC assay was designed and validated to be compatible with CLIA guidelines for “homebrew” class I test validation.
For IHC biomarker analysis, the Biomarker Analysis Set was used, which included all patients who received at least one dose of study treatment. The following efficacy endpoints were analyzed: PFS, OS, and objective response rate (ORR). Summary statistics were provided for percent and density of positive cells by response category (complete response [CR]+partial response [PR] versus stable disease [SD]+progressive disease [PD]) for each marker). The Wilcoxon Rank Sum test was performed to test for difference between response categories. Fisher's exact test was used to test for association between response category and biomarker stratum using median value as cut off point.

[1] = patients with <median CD68 cell density (cut off 0.08 cells/mm^2)
[2] = patients with <median CD68 percentage of positive cells (cut off 5.21%)
[3] = patients with >=median CD68 cell density (cut off 0.08 cells/mm^2)
[4] = patients with >=median CD68 percentage of positive cells (cut off 5.21%)

With CNC(=O)c1ccccc1Sc1ccc2c(/C=C/c3ccccn3)n[nH]c2c1 [axitinib, 6-[2-(methylcarbamoyl)phenylsulfanyl]-3-E-[2-(pyridin-2-yl)ethenyl]indazole] the “hazard ratio (HR) for OS” value (>=median vs <median CD68 values, all cases, not statistically significant) was over 0.6, the “hazard ratio [HR] for PFS” value (>=median vs <median CD68 values, logrank p-value<=0.01, all patients regardless of prior treatment) was 0.42 and the “median OS” value [1] was 17.8 months. The “median progression free survival (PFS)” value [1] was 3.8 months, the “median OS” value [2] was 21.8 months and the “median progression free survival (PFS)” value [2] was 3.7 months. For the same molecule, the “median OS” value [3] was 22.6 months, the “median progression free survival (PFS)” value [3] was 12.0 months and the “median OS” value [4] was 20.0 months. For the same molecule, the “median progression free survival (PFS)” value [4] was 12.0 months.
